The results in this text go back to patent US11985932B2 (priority 2019, dated 2024).

For data set [1], the system named is rice blast fungus (Magnaporthe grisea strain K-06). The class given is in vivo. As to conditions: for hyphal elongation of rice blast fungus in the leaf sheath / blast resistance: progeny (third generation; R2) of treated lines, 150 μM (salicylic acid 1 mM), vs Nipponbare, FIG. 11B; for hyphal elongation of Magnaporthe oryzae in the leaf sheath / disease resistance: regenerated rice individuals, callus treated at 150 μM (salicylic acid 1 mM), P<0.05, FIG. 11A.

Data set [2] deals with WRKY45 gene. The experiment in a line: RNA-seq of probenazole-treated rice callus (WRKY45 induction). The class given is cell-based, Oryza sativa cv. Nipponbare. To be noted: 7th day after probenazole treatment (50, 100 or 150 μM) on dedifferentiation-inducing medium.
In data set [3] the test system is Botrytis cinerea. The data set can be described thus: Botrytis cinerea inoculation of Nicotiana benthamiana leaves, lesion area. The class given is in vivo.
For data set [4], the system named is Pseudomonas syringae pv. tabaci. The data set can be described thus: Pseudomonas syringae pv. tabaci inoculation of Nicotiana benthamiana leaves, CFU. As to conditions: R0 plant of Nicotiana benthamiana of callus treated with probenazole. The class given is in vivo.
Data set [5] has as its system Botrytis cinerea. The experiment in a line: Botrytis cinerea inoculation of tomato leaves, lesion area. The class given is in vivo. To be noted: regenerated tomato (Micro-Tom) lines, callus treated with 200 μM probenazole; vs WT.
The test system of data set [6] is rice callus. The data set can be described thus: Callus survival and redifferentiation under probenazole treatment.

`N#Cc1ccccc1NC(=O)c1snc(Cl)c1Cl` [isothianil, isotianil]: in data set [1], the “hyphal elongation of rice blast fungus in the leaf sheath / blast resistance” value is “significant blast resistance” and the “hyphal elongation of Magnaporthe oryzae in the leaf sheath / disease resistance” value was “significant disease resistance”.
Regarding `O=C(O)c1ccccc1O` [salicylic acid], in data set [1], the “hyphal elongation of rice blast fungus in the leaf sheath / blast resistance” value was “significant blast resistance” and the “hyphal elongation of Magnaporthe oryzae in the leaf sheath / disease resistance” value is given as “significant disease resistance”.
In the same order, the values of `Cc1ccc(NC(=O)c2snnc2C)cc1Cl` [tiadinil] are “significant blast resistance” and “significant disease resistance”.
For `C=CCOC1=NS(=O)(=O)c2ccccc21` [probenazole, 3-prop-2-enoxy-1,2-benzothiazole 1,1-dioxide], in data set [2], the “expression of the WRKY45 gene in callus” value is reported as “induced”. In data set [1], the “hyphal elongation of rice blast fungus in the leaf sheath / blast resistance” value is reported as “significant blast resistance” and the “hyphal elongation of Magnaporthe oryzae in the leaf sheath / disease resistance” value is listed as “significant disease resistance”. The Botrytis cinerea resistance result in data set [3] (R1, self-fertilized progeny of R0, Nicotiana benthamiana) is “Significant Botrytis cinerea resistance”. Also, the “expansion of lesions of Botrytis cinerea” value in data set [3] (current generation (R0) of regenerated Nicotiana benthamiana, callus treated with 200 μM probenazole 7 to 21 days, vs wild type) is “significantly suppressed”. Also, the “growth of Pseudomonas syringae pv. tabaci” value in data set [4] is given as “markedly suppressed”. In data set [5], the “lesion expansion of Botrytis cinerea in tomato leaves” value is “significantly suppressed”. Also, in data set [6] (compared to control not treated with probenazole), the “number of meristems formed in callus and appearance rate of regenerated plants” value is on record as “no significant difference”. In addition, in data set [6] (probenazole treatment in dedifferentiation or redifferentiation process), the redifferentiation from callus was “not inhibited”. The same compound gave a callus survival rate in data set [6] (probenazole-treated rice callus vs control callus) of 100%.
Regarding `CSC(=O)c1cccc2nnsc12` [acibenzolar S-methyl], in data set [1], the “hyphal elongation of rice blast fungus in the leaf sheath / blast resistance” value is recorded as “significant blast resistance” and the “hyphal elongation of Magnaporthe oryzae in the leaf sheath / disease resistance” value is “significant disease resistance”.
